Results reported in patent US5677146A, “Human amyloid protein precursor homolog and kunitz-type inhibitor” (Zymogenetics, Inc., priority 1995, dated 1997).

How the values were obtained:
Urokinase = target: T1, Urokinase (Homo sapiens, UniProt P00749); experiment: Protease inhibitory activity assay, urokinase; assay type: biochemical; settings: 1 μM inhibitor; urokinase 5 nM; <Glu-Gly-Arg-pNA 0.6 mM; 25° C.
T1 construct: purchased Serono, Freigung, Germany
Description: (§1) Inhibition assays were performed in microtiter wells in a total volume of 300 μl in 10 mM NaCl, 50 mM Tris-HCl (pH 7.4), 0.01% TWEEN80 (Polyoxyethylenesorbitan monoleate). The reactions were incubated at 25° C. for ten minutes after which the appropriate chromogenic substrate was added to the final concentration listed in Table 2 and the final reaction was incubated for thirty minutes at 25° C. Amidolytic activity was measured at 405 nm or by fluorescence Em at 460 nm.

Trypsin = experiment: Protease inhibitory activity assay, trypsin; assay type: biochemical; settings: 1 μM inhibitor; trypsin 8 nM; H-D-Val-Leu-Lys-pNA 0.6 mM; 25° C.
Description: Trypsin (8 nM) H--D--Val--Leu--Lys--pNA
as §1

Leukocyte Elastase = target: T2, Leukocyte Elastase (Homo sapiens, UniProt P08246); experiment: Protease inhibitory activity assay, leukocyte elastase; assay type: biochemical; settings: 1 μM inhibitor; MeO-Suc-Ala-Ala-Pro-Val-pNA 0.6 mM; 25° C.
T2 construct: purified at Novo Nordisk A/S; tissue Novo Nordisk A/S (purified there); host or cells: leukocytes
T2 sequence (P08246 30-267): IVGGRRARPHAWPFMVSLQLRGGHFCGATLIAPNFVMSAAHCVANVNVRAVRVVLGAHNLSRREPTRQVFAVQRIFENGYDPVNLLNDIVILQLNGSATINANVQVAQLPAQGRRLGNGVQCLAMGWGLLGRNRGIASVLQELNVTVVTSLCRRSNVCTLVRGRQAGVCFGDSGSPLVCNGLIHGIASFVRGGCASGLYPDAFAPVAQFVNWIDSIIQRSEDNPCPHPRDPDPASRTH
Description: MeO--Suc--Ala--Ala--Pro--Val--pNA
(§2) purified at Novo Nordisk A/S
as §1

Plasmin = target: T3, Plasmin (Homo sapiens, UniProt P00747); experiment: Protease inhibitory activity assay, plasmin; assay type: biochemical; settings: 1 μM inhibitor; plasmin 10 nM; H-D-Val-Leu-Lys-pNA 0.6 mM; 25° C.
T3 construct: Plasmin (10 nM); purchased Kabi
T3 sequence (P00747 97-580 limits assumed): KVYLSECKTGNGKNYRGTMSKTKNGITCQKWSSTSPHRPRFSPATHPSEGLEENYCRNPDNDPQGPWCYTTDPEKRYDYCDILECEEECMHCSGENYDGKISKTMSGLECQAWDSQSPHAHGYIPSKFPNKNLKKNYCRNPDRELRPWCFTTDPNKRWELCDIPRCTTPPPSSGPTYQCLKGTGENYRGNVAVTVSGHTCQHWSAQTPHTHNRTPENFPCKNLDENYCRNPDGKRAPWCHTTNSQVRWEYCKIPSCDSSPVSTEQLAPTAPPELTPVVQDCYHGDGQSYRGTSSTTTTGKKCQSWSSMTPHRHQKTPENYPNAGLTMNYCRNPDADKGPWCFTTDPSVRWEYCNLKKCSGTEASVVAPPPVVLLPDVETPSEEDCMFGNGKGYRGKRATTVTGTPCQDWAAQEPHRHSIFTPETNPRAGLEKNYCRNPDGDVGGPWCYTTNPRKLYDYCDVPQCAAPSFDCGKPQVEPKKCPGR
T3 sequence (P00747 581-810 limits assumed): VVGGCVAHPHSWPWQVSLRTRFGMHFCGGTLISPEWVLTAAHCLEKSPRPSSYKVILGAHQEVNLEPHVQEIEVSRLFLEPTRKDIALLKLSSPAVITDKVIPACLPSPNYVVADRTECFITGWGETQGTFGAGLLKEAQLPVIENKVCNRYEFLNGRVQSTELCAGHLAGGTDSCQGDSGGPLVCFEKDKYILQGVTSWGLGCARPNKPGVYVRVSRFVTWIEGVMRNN
Description: H--D--Val--Leu--Lys--pNA
as §1

[1] = target: T4, PL Kallikrein (plasma kallikrein) (Homo sapiens, UniProt P03952); experiment: Protease inhibitory activity assay, plasma kallikrein; assay type: biochemical; settings: 1 μM inhibitor; PL kallikrein 3 nM; H-D-Pro-Phe-Arg-pNA 0.6 mM; 25° C.
T4 construct: purchased Kabi
T4 sequence (P03952 20-390 limits assumed): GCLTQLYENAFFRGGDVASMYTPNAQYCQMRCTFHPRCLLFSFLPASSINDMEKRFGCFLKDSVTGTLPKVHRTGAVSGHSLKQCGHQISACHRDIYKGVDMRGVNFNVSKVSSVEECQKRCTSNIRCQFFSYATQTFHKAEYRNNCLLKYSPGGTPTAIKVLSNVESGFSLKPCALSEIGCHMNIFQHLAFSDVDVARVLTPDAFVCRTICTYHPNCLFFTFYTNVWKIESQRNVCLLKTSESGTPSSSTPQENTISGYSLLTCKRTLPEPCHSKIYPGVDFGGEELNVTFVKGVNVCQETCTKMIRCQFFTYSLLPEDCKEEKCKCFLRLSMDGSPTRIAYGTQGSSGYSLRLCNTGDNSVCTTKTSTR
T4 sequence (P03952 391-638 limits assumed): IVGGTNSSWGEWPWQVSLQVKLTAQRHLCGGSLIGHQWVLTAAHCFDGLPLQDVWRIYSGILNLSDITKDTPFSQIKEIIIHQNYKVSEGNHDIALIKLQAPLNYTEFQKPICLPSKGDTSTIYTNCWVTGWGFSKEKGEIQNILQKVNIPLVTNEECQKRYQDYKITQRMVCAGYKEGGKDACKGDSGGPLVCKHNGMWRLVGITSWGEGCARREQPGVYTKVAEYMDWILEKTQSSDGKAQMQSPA
Description: (§3) H--D--Pro--Phe--Arg--pNA
(§4) Abbreviations in Table 2: rec. refers to recombinant, GL kallikrein refer
(§5) to glandular kallikrein, and PL kallikrein refers to plasma kallikrein.
as §1

[2] = system: GL Kallikrein (glandular kallikrein); experiment: Protease inhibitory activity assay, glandular kallikrein; assay type: biochemical; settings: 1 μM inhibitor; GL kallikrein 1 U/ml; H-D-Val-Leu-Arg-pNA 0.6 mM; 25° C.
Description: H--D--Val--Leu--Arg--pNA
as §4, §5, §1

Cathepsin G = target: T5, Cathepsin G (Homo sapiens, UniProt P08311); experiment: Protease inhibitory activity assay, cathepsin G; assay type: biochemical; settings: 1 μM inhibitor; Suc-Ala-Ala-Pro-Phe-pNA 0.6 mM; 25° C.
T5 construct: purified at Novo Nordisk A/S; tissue Novo Nordisk A/S (purified there); host or cells: leukocytes (by the cited method)
T5 sequence (P08311 21-255): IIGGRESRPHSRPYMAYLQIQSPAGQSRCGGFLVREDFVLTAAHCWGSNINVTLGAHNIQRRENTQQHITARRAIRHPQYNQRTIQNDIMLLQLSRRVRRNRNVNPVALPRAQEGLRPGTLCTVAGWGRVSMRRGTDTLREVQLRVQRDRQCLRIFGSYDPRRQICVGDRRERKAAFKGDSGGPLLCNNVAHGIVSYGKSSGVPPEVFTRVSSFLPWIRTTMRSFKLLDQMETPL
Description: Cathepsin G Suc--Ala--Ala--Pro--Phe--pNA
as §2
(0.6 mM) (SEQ ID NO: 19)
as §1

Chymotrypsin = experiment: Protease inhibitory activity assay, chymotrypsin; assay type: biochemical; settings: 1 μM inhibitor; chymotrypsin 2.5 nM; MeO-Suc-Arg-Pro-Tyr-pNA 0.6 mM; 25° C.
Description: MeO--Suc--Arg--Pro--Tyr--pNA
as §1

granulocyte elastase = target: T6, granulocyte elastase (Homo sapiens, UniProt P08246); settings: cited from earlier work
T6 sequence (P08246 30-267): T2 sequence (P08246 30-267)

collagenase = settings: Wenzel and Tschesche 1981; cited from earlier work
plasma kallikrein = plasma kallikrein (Homo sapiens, UniProt P03952); settings: WO 89/10374; cited from earlier work
Sequence of plasma kallikrein (P03952 20-638, species assumed): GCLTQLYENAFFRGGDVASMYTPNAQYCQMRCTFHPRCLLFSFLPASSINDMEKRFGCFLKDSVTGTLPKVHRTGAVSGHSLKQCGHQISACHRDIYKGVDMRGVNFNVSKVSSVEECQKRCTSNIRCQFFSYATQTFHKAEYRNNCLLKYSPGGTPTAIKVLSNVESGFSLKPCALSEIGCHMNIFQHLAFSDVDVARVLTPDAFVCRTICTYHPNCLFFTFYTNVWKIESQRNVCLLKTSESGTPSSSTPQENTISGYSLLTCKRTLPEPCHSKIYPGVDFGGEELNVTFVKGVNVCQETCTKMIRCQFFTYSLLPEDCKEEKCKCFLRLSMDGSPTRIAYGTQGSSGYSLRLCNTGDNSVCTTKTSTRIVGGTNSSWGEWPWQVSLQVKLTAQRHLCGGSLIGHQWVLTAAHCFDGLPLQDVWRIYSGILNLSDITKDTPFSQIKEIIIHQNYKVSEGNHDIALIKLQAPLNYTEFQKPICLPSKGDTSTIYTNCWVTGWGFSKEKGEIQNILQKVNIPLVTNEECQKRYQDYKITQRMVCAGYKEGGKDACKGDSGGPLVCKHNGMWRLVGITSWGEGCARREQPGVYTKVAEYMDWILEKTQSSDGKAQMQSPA

kidneys = settings: in vivo, repeated injections of relatively high doses; rats, rabbits and dogs; cited from earlier work
human Factor Xa = target: T7, human Factor Xa (Homo sapiens, UniProt P00742); experiment: Protease inhibitory activity assay, Factor Xa; assay type: biochemical; settings: 1 μM inhibitor; Factor Xa 3 nM; MeO-CO-CHA-Gly-Arg-pNA 0.3 mM; 25° C.
T7 construct: human Factor Xa (3 nM); purchased Dr. I. Schousboe, Copenhagen, Denmark
T7 sequence (P00742 41-179 limits assumed): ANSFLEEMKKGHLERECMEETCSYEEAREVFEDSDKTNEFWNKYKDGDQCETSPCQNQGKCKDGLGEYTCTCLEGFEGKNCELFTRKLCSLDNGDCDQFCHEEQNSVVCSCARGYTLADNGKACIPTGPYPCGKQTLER
T7 sequence (P00742 235-488 limits assumed): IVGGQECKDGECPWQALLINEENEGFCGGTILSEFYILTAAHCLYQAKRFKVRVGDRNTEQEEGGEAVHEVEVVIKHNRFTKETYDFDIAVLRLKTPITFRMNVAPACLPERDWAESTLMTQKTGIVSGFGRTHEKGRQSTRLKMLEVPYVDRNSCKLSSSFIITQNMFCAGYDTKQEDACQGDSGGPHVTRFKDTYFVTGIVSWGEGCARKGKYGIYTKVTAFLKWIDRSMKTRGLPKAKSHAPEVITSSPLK
Description: The reactions were incubated at 25° C. for ten minutes after which the appropriate chromogenic substrate was added to the final concentration listed in Table 2 and the final reaction was incubated for thirty minutes at 25° C. Amidolytic activity was measured at 405 nm or by fluorescence Em at 460 nm.

[3] = target: T8, rec. Protein Ca (activated protein C) (Homo sapiens, UniProt P04070); experiment: Protease inhibitory activity assay, activated protein C; assay type: biochemical; settings: 1 μM inhibitor; rec. Protein Ca 5 nM; <Glu-Pro-Arg-pNA 0.6 mM; 25° C.
T8 construct: purchased Novo Nordisk A/S
T8 sequence (P04070 43-197 limits assumed): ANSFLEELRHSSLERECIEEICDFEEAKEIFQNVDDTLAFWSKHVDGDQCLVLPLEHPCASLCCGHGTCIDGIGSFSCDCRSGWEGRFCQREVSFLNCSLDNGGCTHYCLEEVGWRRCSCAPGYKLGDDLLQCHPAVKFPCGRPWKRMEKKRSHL
T8 sequence (P04070 212-461 limits assumed): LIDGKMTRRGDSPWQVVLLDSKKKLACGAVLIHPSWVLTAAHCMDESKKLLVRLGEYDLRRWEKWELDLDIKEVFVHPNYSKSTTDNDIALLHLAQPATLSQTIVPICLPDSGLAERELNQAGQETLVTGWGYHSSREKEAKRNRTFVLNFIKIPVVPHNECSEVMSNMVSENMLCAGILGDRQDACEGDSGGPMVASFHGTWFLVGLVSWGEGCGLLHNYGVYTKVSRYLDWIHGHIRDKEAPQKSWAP
Description: as §1
r.h. refers to recombinant human, h. refers to human, protein Ca refers t
activated protein C; APPH refers to the KunitzType inhibitor domain of […]

human Factor XIIa = target: T9, human Factor XIIa (Homo sapiens, UniProt P00748); experiment: Protease inhibitory activity assay, Factor XIIa; assay type: biochemical; settings: 1 μM inhibitor; Factor XIIa 30 nM; H-D-Pro-Phe-Arg-pNA 0.6 mM; 25° C.
T9 construct: human Factor XIIa (30 nM); purchased Dr. Walt Kisiel, University of New Mexico, Albuquerque, NM
T9 sequence (P00748 20-372 limits assumed): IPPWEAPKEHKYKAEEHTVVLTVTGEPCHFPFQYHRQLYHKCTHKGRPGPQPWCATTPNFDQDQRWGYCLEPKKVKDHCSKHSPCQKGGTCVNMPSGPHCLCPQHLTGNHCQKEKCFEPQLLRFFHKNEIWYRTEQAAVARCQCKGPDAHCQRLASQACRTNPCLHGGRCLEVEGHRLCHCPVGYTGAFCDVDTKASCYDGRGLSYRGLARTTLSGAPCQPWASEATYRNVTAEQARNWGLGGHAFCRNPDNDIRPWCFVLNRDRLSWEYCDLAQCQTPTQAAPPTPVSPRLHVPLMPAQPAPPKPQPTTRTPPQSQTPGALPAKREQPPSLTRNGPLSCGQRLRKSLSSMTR
T9 sequence (P00748 373-615 limits assumed): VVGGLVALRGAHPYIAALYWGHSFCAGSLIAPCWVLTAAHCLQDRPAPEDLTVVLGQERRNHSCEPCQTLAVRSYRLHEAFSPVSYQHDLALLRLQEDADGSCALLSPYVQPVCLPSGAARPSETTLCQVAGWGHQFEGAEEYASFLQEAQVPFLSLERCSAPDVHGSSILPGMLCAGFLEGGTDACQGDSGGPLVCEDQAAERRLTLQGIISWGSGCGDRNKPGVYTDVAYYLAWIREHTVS
Description: human Factor XIIa (30 nM)
as §3, §1

rec. human Factor VIIa = target: T10, rec. human Factor VIIa (Homo sapiens, UniProt P08709); experiment: Protease inhibitory activity assay, Factor VIIa; assay type: biochemical; settings: 1 μM inhibitor; Factor VIIa 300 nM; H-D-Ile-Pro-Arg-pNA 0.6 mM; 25° C.
T10 construct: rec. human Factor VIIa; purchased Novo Nordisk A/S
T10 sequence (P08709 61-212 limits assumed): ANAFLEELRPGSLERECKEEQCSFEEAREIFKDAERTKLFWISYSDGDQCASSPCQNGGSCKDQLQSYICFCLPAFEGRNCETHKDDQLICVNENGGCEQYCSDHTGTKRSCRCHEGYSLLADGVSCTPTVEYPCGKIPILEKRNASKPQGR
T10 sequence (P08709 213-466 limits assumed): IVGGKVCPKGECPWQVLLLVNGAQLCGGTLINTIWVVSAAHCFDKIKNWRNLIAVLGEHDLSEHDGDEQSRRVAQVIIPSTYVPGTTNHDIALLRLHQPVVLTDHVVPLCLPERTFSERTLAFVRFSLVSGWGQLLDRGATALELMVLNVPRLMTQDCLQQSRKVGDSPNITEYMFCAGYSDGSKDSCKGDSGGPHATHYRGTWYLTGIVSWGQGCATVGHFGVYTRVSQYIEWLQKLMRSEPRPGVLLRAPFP
Description: H--D--Ile--Pro--Arg--pNA
as §1

human Factor XIa = target: T11, human Factor XIa (Homo sapiens, UniProt P03951); experiment: Protease inhibitory activity assay, Factor XIa; assay type: biochemical; settings: 1 μM inhibitor; Factor XIa 1 nM; Boc-Glu(OBzl)-Ala-Arg-MCA 0.12 mM; 25° C.
T11 construct: human Factor XIa (1 nM); purchased Dr. Kazuo Fujikawa, University of Washington, Seattle, WA
T11 sequence (P03951 19-387 limits assumed): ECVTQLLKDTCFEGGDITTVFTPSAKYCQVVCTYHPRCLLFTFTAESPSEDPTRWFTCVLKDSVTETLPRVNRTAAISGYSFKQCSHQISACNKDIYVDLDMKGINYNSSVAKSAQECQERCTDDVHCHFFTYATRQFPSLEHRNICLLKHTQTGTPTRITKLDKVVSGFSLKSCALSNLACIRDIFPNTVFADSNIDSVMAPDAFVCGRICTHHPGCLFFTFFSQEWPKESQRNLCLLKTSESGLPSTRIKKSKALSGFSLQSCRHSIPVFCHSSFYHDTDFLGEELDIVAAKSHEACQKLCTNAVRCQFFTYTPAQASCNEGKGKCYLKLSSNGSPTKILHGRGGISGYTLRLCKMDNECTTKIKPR
T11 sequence (P03951 388-625 limits assumed): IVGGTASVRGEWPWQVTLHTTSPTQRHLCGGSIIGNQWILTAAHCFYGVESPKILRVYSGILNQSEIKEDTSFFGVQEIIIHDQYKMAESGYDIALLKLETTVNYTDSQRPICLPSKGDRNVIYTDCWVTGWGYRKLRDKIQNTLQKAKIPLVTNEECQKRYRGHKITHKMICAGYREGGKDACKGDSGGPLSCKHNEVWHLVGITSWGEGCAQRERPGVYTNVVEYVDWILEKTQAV
Description: Boc--Glu(OBzl)--Ala--Arg--MCA
as §1

[4] = high doses; cardiac surgery including cardiopulmonary bypass operations; cited from earlier work

In the case of “APP: amyloid protein precursor Kunitz-type inhibitor domain (Example 2E, SEQ ID NO:17), expressed in yeast (EVCSEQAETGPCRAMISRWYFDVTEGKCAPFFYGGCGGNRNNFDTEEYCMAVCGSA)”, the “% Inhibition, Urokinase” value (Urokinase) is reported as 0%, the “% Inhibition, Trypsin” value (Trypsin) is reported as 99.7% and the “% Inhibition, Leukocyte Elastase” value (Leukocyte Elastase) is reported as 6%. The “% Inhibition, Plasmin” value (Plasmin) was 90%, the “% Inhibition, PL Kallikrein” value [1] was 71% and the “% Inhibition, GI Kallikrein” value [2] was 82%. The “% Inhibition, Cathepsin G” value (Cathepsin G) was 16% and the “% Inhibition, Chymotrypsin” value (Chymotrypsin) was 94%.

In the case of Aprotinin (1-58, Ala15), the effect on elastase (granulocyte elastase; literature) is listed as “weak effect”.

For aprotinin (1-58, Val15), the “selectivity for granulocyte elastase” value (granulocyte elastase; Wenzel and Tschesche 1981) is listed as “relatively high selectivity” and the “inhibitory effect on collagenase” value (collagenase) is listed as “inhibitory effect”.

In the case of aprotinin (3-58, Arg15, Ala17, Ser42), the “plasma kallikrein inhibitory effect” value (plasma kallikrein) is given as “excellent”.

For aprotinin [BPTI], the “% Inhibition, Urokinase” value (Urokinase) is listed as 1%, the nephrotoxic effect (kidneys) is listed as “nephrotoxic effect” and the “% Inhibition, Trypsin” value (Trypsin) is listed as 100%. For the same substance, the “% Inhibition, Leukocyte Elastase” value (Leukocyte Elastase) was 1%, the “% Inhibition, Plasmin” value (Plasmin) was 100% and the “% Inhibition, PL Kallikrein” value [1] was 83%. The “% Inhibition, h. Factor Xa” value (human Factor Xa) was 1%, the “% Inhibition, Cathepsin G” value (Cathepsin G) was 4% and the “% Inhibition, r.h. Protein Ca” value [3] was 38%. The “% Inhibition, h. Factor XIIa” value (human Factor XIIa) was 2%, the “% Inhibition, r.h. Factor VIIa” value (rec. human Factor VIIa) was 1% and the “% Inhibition, h. Factor XIa” value (human Factor XIa) was 59%. For the same substance, the “blood loss in connection with cardiac surgery” value [4] was “significantly reduces blood loss”.
